Source: ChEMBL document CHEMBL5465560, “Selectivity Literature for EUbOPEN Chemogenomic Library” (2024)
Values belong to the molecule of their own block, whether it stands above or below them.

Tests used:
[1] = molecular target: Platelet-derived growth factor receptor alpha (Homo sapiens, UniProt P16234); experiment: Selectivity interaction (Millipore kinase profiler) EUB0000124b PDGFRA; conditions: at 10 µM
[2] = molecular target: Serine/threonine-protein kinase MRCK gamma (Homo sapiens) (UniProt Q6DT37); experiment: Selectivity interaction (KinomeScan (DiscoverX)) EUB0001049a CDC42BPG; conditions: at 1 µM
[3] = molecular target: Serine/threonine-protein kinase PAK 1 (Homo sapiens) (UniProt Q13153); experiment: Selectivity interaction (Kinase panel (Invitrogen)) EUB0000639a PAK1; conditions: at 200 nM
Sequence of Serine/threonine-protein kinase PAK 1 (Homo sapiens) (Q13153 whole entry): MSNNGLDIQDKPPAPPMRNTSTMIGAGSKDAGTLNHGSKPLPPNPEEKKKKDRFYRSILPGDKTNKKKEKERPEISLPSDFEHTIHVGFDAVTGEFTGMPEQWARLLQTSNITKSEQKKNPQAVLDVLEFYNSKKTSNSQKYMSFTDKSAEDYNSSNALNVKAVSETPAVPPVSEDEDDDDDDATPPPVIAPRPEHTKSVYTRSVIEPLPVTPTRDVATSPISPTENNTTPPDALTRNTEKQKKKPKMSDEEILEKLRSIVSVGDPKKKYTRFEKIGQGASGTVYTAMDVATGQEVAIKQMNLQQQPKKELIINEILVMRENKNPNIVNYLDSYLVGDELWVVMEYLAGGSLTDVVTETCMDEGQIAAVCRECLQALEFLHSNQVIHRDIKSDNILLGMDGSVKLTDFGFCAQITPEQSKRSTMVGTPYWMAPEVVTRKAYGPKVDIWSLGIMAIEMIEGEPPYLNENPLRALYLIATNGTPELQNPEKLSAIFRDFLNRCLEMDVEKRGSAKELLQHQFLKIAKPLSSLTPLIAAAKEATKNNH

[4] = molecular target: Lethal(3)malignant brain tumor-like protein 1 (Homo sapiens) (UniProt Q9Y468); experiment: Selectivity interaction (Transferase panel (protein, RNA, and DNA methyltransferases. and EP300 (acetyltransferase))) EUB0000270b L3MBTL; conditions: at 1 µM
Sequence of Lethal(3)malignant brain tumor-like protein 1 (Homo sapiens) (Q9Y468 whole entry): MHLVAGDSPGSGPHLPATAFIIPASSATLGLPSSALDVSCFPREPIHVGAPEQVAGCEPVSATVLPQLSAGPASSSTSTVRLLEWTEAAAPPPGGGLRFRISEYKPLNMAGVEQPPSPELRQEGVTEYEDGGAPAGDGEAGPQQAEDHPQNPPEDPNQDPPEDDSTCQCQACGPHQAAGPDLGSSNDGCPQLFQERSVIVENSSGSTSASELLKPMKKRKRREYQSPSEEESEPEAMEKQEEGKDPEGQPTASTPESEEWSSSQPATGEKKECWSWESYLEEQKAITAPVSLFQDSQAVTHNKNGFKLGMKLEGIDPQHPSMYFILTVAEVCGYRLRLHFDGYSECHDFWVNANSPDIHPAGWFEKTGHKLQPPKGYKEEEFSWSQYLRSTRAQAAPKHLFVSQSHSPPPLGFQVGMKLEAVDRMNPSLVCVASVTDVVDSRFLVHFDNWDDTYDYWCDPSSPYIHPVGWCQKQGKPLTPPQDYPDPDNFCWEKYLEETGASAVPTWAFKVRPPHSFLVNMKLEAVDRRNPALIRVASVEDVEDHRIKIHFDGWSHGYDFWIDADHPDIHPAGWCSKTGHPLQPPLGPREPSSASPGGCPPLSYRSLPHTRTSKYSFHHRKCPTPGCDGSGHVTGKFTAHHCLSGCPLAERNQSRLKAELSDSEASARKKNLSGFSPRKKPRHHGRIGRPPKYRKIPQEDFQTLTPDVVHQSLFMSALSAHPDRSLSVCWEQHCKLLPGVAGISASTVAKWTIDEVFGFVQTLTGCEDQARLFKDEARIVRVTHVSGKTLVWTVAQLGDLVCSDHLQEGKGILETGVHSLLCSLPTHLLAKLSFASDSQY

[5] = molecular target: T1, G protein-coupled receptor kinase 3 (Homo sapiens) (UniProt P35626); experiment: Selectivity interaction (KinomeScan (DiscoverX)) EUB0001079a ADRBK2; conditions: at 1 µM
T1 sequence (whole entry): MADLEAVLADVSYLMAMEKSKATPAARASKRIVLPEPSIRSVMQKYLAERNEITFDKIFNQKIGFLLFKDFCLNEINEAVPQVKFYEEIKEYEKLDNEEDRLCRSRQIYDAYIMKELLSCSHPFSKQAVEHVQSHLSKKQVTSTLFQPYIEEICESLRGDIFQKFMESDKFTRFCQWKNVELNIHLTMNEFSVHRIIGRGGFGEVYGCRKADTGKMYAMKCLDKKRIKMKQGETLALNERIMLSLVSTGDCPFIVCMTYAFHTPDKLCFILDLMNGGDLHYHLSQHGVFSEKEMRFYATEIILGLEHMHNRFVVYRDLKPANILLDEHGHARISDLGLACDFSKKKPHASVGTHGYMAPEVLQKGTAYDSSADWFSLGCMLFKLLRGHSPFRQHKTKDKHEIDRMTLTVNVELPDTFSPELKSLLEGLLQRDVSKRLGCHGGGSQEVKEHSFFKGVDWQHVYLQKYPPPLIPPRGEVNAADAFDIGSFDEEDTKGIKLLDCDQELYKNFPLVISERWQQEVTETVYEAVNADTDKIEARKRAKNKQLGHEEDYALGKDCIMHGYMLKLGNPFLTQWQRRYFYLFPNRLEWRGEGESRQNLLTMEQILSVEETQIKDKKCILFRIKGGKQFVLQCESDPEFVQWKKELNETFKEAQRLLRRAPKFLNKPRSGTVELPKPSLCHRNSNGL

[6] = molecular target: T2, Serine/threonine-protein kinase TAO1 (Homo sapiens) (UniProt Q7L7X3); experiment: Selectivity interaction (KinomeScan (DiscoverX)) EUB0000655a TAOK1; conditions: at 10 µM
T2 sequence (whole entry): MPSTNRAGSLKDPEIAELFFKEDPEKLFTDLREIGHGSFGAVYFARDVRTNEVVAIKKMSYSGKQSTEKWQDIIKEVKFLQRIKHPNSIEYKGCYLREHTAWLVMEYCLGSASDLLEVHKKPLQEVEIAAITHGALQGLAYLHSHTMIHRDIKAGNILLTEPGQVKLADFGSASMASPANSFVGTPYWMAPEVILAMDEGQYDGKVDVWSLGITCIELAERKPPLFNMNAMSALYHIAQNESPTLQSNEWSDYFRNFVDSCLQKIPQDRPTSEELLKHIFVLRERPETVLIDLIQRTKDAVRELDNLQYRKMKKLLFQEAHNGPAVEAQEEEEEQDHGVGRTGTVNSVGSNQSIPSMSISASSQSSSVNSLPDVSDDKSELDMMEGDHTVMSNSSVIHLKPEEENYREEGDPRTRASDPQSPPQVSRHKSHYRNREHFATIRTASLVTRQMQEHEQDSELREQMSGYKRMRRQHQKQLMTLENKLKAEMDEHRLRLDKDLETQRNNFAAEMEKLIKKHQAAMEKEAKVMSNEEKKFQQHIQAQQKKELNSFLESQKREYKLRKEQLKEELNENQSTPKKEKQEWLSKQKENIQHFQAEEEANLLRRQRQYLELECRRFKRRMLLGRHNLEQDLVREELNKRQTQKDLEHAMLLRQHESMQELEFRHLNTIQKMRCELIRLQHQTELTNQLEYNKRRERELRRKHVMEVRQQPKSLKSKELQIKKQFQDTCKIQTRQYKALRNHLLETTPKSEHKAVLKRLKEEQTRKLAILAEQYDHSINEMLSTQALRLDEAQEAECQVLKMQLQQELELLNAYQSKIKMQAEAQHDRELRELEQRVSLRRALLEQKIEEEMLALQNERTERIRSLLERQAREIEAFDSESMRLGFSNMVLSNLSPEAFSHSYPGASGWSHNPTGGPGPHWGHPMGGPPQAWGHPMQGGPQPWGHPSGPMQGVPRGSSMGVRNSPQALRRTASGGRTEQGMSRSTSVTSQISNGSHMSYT

[7] = molecular target: Tyrosine-protein kinase JAK1 (Homo sapiens, UniProt P23458); experiment: Selectivity interaction (NanoBRET assay (HEK293T cells)) EUB0001559a JAK1; type: cell-based, HEK-293T
Sequence of Tyrosine-protein kinase JAK1 (P23458 whole entry): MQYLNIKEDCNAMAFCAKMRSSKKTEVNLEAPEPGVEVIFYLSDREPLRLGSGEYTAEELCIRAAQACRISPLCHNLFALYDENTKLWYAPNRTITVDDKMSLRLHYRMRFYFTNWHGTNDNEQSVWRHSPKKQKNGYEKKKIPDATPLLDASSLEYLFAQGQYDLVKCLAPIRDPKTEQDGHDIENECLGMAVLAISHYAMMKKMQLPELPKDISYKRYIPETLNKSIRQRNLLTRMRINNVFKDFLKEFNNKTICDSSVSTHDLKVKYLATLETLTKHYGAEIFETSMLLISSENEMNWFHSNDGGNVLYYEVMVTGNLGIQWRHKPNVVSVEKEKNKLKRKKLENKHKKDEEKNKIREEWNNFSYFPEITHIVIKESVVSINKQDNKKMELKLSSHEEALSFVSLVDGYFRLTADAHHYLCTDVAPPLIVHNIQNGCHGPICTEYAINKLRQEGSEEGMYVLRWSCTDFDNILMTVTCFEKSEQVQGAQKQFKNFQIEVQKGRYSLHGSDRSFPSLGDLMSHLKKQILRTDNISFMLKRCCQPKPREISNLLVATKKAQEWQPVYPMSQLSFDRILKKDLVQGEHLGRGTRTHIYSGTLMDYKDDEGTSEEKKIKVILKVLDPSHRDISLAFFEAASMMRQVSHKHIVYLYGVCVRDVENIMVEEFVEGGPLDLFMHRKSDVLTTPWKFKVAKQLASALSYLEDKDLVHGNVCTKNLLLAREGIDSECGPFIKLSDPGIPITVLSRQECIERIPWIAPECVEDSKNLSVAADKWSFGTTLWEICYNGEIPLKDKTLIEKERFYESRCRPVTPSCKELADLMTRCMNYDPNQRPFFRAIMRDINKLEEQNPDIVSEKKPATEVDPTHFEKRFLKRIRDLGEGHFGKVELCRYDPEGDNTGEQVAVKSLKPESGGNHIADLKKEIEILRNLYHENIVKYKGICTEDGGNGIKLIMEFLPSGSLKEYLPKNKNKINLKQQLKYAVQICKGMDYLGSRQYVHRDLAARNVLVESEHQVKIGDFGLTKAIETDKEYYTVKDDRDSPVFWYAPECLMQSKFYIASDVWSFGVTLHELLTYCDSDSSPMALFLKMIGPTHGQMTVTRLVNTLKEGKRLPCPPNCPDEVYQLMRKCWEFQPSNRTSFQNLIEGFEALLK

[8] = molecular target: Dual specificity mitogen-activated protein kinase kinase 2 (Homo sapiens) (UniProt P36507); experiment: Selectivity interaction (KinomeScan (DiscoverX)) EUB0000607a MAP2K2; conditions: at 10 µM
Sequence of Dual specificity mitogen-activated protein kinase kinase 2 (Homo sapiens) (P36507 whole entry): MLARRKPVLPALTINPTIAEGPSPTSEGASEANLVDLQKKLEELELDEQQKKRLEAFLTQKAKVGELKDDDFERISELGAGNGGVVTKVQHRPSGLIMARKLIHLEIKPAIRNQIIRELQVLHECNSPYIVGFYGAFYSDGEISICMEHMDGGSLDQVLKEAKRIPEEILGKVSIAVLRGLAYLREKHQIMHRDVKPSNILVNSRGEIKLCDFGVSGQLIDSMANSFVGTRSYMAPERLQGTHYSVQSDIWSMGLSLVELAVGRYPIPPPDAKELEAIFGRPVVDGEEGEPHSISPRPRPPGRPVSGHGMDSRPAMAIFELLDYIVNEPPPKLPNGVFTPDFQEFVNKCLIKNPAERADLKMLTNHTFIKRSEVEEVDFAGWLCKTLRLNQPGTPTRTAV

Sequence of Platelet-derived growth factor receptor alpha (P16234 whole entry): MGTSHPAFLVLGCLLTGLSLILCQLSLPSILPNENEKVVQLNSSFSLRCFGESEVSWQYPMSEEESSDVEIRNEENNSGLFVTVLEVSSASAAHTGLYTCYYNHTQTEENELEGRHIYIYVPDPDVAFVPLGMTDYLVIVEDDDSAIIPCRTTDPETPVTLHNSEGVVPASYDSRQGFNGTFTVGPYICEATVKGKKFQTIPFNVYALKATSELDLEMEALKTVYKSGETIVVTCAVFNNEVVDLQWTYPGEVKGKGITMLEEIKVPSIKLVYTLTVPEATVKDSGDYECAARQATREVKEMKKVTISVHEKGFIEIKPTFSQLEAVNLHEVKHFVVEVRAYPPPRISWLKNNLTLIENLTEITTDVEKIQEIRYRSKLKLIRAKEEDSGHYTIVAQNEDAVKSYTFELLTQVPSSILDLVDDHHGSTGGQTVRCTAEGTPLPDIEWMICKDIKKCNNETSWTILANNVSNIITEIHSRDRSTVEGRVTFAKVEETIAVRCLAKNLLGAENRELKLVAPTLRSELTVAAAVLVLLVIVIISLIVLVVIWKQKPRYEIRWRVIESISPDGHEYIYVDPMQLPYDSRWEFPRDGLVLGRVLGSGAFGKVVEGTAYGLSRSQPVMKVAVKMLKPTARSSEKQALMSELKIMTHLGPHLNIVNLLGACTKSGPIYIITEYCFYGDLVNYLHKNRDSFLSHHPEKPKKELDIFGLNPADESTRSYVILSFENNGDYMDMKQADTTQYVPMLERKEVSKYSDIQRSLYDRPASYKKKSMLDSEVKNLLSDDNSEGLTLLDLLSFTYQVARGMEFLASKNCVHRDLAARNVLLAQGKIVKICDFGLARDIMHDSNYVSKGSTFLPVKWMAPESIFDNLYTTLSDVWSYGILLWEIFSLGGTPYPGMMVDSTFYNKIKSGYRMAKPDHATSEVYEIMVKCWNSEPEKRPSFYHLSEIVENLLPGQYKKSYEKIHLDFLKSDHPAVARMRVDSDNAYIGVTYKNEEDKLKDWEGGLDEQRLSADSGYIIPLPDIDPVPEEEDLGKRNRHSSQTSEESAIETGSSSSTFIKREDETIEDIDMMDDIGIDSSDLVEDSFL

- % of control [1]: 111%
SMILES: CC(=O)Nc1cccc(-n2c(=O)n(C3CC3)c(=O)c3c(Nc4ccc(I)cc4F)n(C)c(=O)c(C)c32)c1

SMILES: COc1cc(Nc2nc(C)cc(-c3cnn4nc(OC)ccc34)n2)cc(C(F)(F)F)c1
- % of control [2]: 89%

- % of inhibition [3]: -9.19%
SMILES: CC[C@@H]1[C@H](F)C(=O)N[C@@H]1COc1nccc2cc(C(N)=O)c(OC)cc12 [ZIMLOVISERTIB]

SMILES: Cc1cc(CN)cc(C)c1-c1ncn(C)c1-c1cncn1C
- % activity [4]: > 90%

SMILES: Nc1cnc(N2CCc3cc(S(=O)(=O)Nc4c(F)cc(Cl)cc4F)cc(N4CCCC4=O)c32)nc1 [TP-020n]
- % of control [5]: 100%

SMILES: CN(C)CCOc1ccc(-c2nc(-c3ccncc3)c(-c3ccc4c(c3)CC/C4=N\O)[nH]2)cc1
- % of control [6]: 81%

- EC50 [7]: > 50 µM
SMILES: CN(C(=O)c1cnn2cccnc12)c1cc2c(cc1N1CCOCC1)C(=O)N(C[C@@H](F)C(C)(C)O)C2

SMILES: CNC(=O)Nc1ccc(-c2nc(N3CC4CCC(C3)O4)c3cnn(C4CCC5(CC4)OCCO5)c3n2)cc1
- % of control [8]: 100%
